Source: US7164003B2, “Histamine receptor H4 polynucleotides” (Merck & Co. Inc., priority 2001, dated 2007)

How the values were obtained:
[1] = system: H4b receptor variant; conditions: 1 μM in PBS, 37° C., 30 min, transfected COS-7 cells, H4b variant cDNA, compared with H4a-transfected cells
Method: (§1) The full length wild type […]) and the isoforms H4b and […] were cloned in pCDNA3.1 […] Tag eukaryotic expression vector for expression in COS-7 cells. The COS-7 cells grown in culture chambers were transfected with 2 μg of plasmid DNA containing either one of the H4 isoforms or the wild type H4 with superfect (Qiagen) transfection reagent. Binding of Histamine to receptor or receptor variants was determined by BODIPY-L-Histamine or Fluorescein Histamine (Molecular Probes, Eugene Oreg.). Briefly, the transfected cells were washed with PBS and 1 μM concentration of BODIPY-L-Histamine or Fluorescein Histamine in PBS was added to the cells and incubated at 37° C. for 30-min. Unbound fluorescent labelled histamine was washed in cold PBS and the slides were examined immediately under a fluorescent microscope.

[2] = system: H4c receptor variant; conditions: 1 μM in PBS, 37° C., 30 min, transfected COS-7 cells, H4c variant cDNA, compared with H4a-transfected cells
Method: as §1

Row | Binding of fluorescent labelled histamine (fluorescence under microscope) versus H4 wildtype (H4a) [1] | Binding of fluorescent labelled histamine (fluorescence under microscope) versus H4 wildtype (H4a) [2] | Substance
1 | qualitatively comparable fluorescence | qualitatively comparable fluorescence | Fluorescein Histamine
2 | qualitatively comparable fluorescence | qualitatively comparable fluorescence | BODIPY-L-Histamine
